Experimental data: patent US20100172916A1, “SUBSTITUTED HYDROXYPHENYLAMINE COMPOUNDS” (AUSPEX PHARMACEUTICALS, INC., priority 2008, published 2010)

Experiment: In vitro liver microsomal stability assay
Type: in vitro ADME
Conditions: 0.5 mg per mL liver microsome protein, NADPH-generating system, 5 microgram per mL test compound, 37° C., 0-30 minutes, LC/MS/MS
Method: Liver microsomal stability assays were conducted at 0.5 mg per mL liver microsome protein with an NADPH-generating system in 2% sodium bicarbonate (2.2 mM NADPH, 25.6 mM glucose 6-phosphate, 6 units per mL glucose 6-phosphate dehydrogenase and 3.3 mM magnesium chloride). Test compounds were prepared as solutions in 20% acetonitrile-water and were added to the assay mixture (final assay concentration 5 microgram per mL) and incubated at 37° C. Final concentration of acetonitrile in the assay should be <1%. Aliquots (50 μL) were taken out at times 0, 7.5, 15, 22.5, and 30 minutes, and diluted with ice cold acetonitrile (200 μL) to stop the reactions. Samples were centrifuged at 12,000 RPM for 10 minutes to precipitate proteins. Supernatants were transferred to microcentrifuge tubes and stored for LC/MS/MS analysis of the degradation half-life of the test compounds.

degradation half-life as compared to the non-isotopically enriched drug | SMILES
decrease in degradation half-life | [2H][C@@H](c1cccc(O)c1)[C@]([2H])(N)C(=O)O [Example 2, d3-2-Amino-3-(3-hydroxy-phenyl)-propionic acid]
decrease in degradation half-life | [2H]C([2H])(c1cccc(O)c1)[C@]([2H])(N)C(=O)O [Example 3, d3-2-Amino-3-(3-hydroxy-phenyl)-propionic acid]
